Measurements: patent US10842772B1, “Cannabis-based bioactive formulations and methods for use thereof” (priority 2016, dated 2020)
Where a name gives a salt, the structure may show the parent alone.

Assays:
5-HT1A receptor = target: T1, 5-HT1A receptor (Homo sapiens, UniProt P08908); settings: cited from earlier work
T1 sequence (P08908 1-422): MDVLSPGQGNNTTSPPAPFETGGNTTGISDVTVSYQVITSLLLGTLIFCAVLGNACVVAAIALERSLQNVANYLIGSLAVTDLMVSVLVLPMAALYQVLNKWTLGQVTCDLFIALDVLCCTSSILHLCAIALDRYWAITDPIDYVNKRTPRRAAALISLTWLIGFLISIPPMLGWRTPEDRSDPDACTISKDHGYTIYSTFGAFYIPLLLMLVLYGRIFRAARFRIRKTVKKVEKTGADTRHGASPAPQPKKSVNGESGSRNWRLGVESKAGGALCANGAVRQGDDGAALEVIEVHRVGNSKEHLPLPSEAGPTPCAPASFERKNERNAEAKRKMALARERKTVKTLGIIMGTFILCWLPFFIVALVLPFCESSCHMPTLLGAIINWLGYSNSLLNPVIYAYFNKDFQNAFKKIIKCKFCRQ

GPR55 = GPR55 (Homo sapiens, UniProt Q9Y2T6); settings: putative new cannabinoid receptor; cited from earlier work
CB1 and CB2 receptors = settings: cited from earlier work
[1] = cited from earlier work
[2] = test system: Patient 1 (anxiety, depression, OCD, ADHD-related symptoms); assay: Example 2: treatment of Patient 1 with THC (vaporized, then edible); assay type: in vivo, human
Protocol: Following cessation of efficacy of Zoloft, Patient 1 obtained a prescription for medical marijuana. Patient 1 began by vaporizing marijuana buds and later vaporizing THC wax and oil concentrates.
Patient 1 began consuming THC in edible form at doses ranging from 10-35 mg every 4-6 hours. Initially, Patient 1 consumed 10-20 mg for approximately 1-2 months, and then increased the dose to 30-35 mg. […] Patient 1 used orally consumed THC as a medicament for at least 9 months during which time they observed and recorded the changes in their mood, movements, cognition and behavior while practicing law working, raising children, and otherwise functioning in their daily life. […] Patient 1 continued to use the SSRI Zoloft during approximately the first 2 months of this 9-month period, but thereafter discontinued the use of Zoloft.
Patient 1 reports that symptom relief seems tied to THC's slowing of their perception of time, which results in cascading (positive) effects on their mood, movements, cognition and behavior.

[3] = test system: patients experiencing ADHD-related symptoms or ASD-related symptoms; assay: Example 3: group study, THC versus placebo; assay type: in vivo, human; settings: THC or Marinol versus placebo; re-evaluation after 2-3 weeks adjustment
Protocol: In patients experiencing ADHD-related symptoms or ASD-related symptoms, obtain baseline measures (using, reports, observations or tests described above) of the symptoms and deficits commonly associated with the conditions. Administer THC, or a synthetic substitute such as Marinol® at a specific dose, to half of the group and administer a placebo to the remainder of the participants. The group that is administered THC should be allowed at least 2-3 weeks to acclimate to THC. After the several week adjustment period, all patients should be re-evaluated using the same or similar tests, observations and reports upon which initial measures of symptoms and deficits were made.

CB2 receptor = CB2 receptor (Homo sapiens, UniProt P34972); settings: cited from earlier work
[4] = test system: Patient 1 (anxiety, depression, OCD, substance abuse, ADHD); assay: Example 1: treatment of Patient 1 with Zoloft; assay type: in vivo, human
Protocol: Patient 1 was also a regular user of alcohol and a recreational user of cocaine. Patient 1 was prescribed selective serotonin reuptake inhibitor (SSRI) Zoloft, at 25 mg with doses increasing up to 200 mg over the course of approximately 6-8 months. The dose of Zoloft/sertraline used was 25-200 mg.

[5] = THC in edible form 10-35 mg every 4-6 hours

Chain of GPR55 (Q9Y2T6 whole entry, species assumed): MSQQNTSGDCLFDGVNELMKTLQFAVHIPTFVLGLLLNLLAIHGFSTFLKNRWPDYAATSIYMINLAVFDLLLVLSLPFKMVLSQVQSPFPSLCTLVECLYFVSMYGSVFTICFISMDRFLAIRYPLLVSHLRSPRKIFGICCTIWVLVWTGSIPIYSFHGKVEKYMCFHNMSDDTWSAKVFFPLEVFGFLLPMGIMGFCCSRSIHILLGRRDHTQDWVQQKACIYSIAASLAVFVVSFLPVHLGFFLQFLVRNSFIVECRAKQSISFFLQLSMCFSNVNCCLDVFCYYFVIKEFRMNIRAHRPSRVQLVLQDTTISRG
Chain of CB2 receptor (P34972 whole entry): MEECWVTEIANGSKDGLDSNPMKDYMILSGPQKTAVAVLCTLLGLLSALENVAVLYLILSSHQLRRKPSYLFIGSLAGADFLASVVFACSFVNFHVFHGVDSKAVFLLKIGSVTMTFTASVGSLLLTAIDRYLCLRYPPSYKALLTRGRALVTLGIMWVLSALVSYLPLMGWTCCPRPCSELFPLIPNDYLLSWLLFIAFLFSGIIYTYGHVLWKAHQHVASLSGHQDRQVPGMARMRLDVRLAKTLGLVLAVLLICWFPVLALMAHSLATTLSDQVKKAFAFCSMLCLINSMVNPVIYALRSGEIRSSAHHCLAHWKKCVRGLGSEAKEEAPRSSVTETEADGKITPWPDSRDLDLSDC

C=C(C)[C@@H]1CCC(C)=C[C@H]1c1c(O)cc(CCCCC)cc1O [CBD, cannabidiol]
activity at 5-HT1A receptor (5-HT1A receptor): agonist
activity at GPR55 (GPR55): antagonist
affinity for CB1 and CB2 receptors (CB1 and CB2 receptors): little affinity
relative affinity for CB1 versus CB2 receptor (CB1 and CB2 receptors): greater affinity for the CB2 receptor

CCCCCc1cc(O)c2c(c1)OC(C)(C)[C@@H]1CCC(C)=C[C@@H]21 [THC, (−)-(6aR,10aR)-6,6,9-trimethyl-3-pentyl-6a,7,8,10a-tetrahydro-6H-benzo[c] chromen-1-ol]
peak plasma time ([1]; Absorption): 0.5 to 4 h
protein bound ([1]; Distribution): 90-99%
excretion: feces ([1]; Elimination): 50%
excretion: urine ([1]; Elimination): 15%
half-life, parent drug ([1]; Elimination): 25 to 36 h
renal clearance ([1]; Elimination): 18 to 20 mL/min
total body clearance ([1]; Elimination): 3.3 mL/min/kg
Metabolism ([1]; in vivo): extensive first-pass hepatic metabolism
relative affinity for CB1 versus CB2 receptor (CB1 and CB2 receptors): approximately equal affinity
OCD and ADHD-related symptoms [2, 5]: elimination
ability to focus and concentrate on reading, writing, and interpersonal interactions [2, 5]: increased ability to focus and concentrate
anxiety, depression [2, 5]: significant reduction
perception of time [2, 5]: slowed perception of time
side effects ([2]; edible THC, after initial adjustment period of approximately 2 weeks): No significant side effects
ability to read body language and facial expressions ([2]; orally-consumed THC): increase in their ability to read body language and facial expressions
alcohol and cocaine use ([2]; orally-consumed THC): rarely consumed alcohol and stopped using cocaine
coordination and balance, fine motor skills ([2]; orally-consumed THC): improvements in coordination and balance
interpersonal relationships at home and in the workplace ([2]; orally-consumed THC): improvement in interpersonal relationships
propensity to interrupt while orally communicating ([2]; orally-consumed THC): reduced propensity to interrupt
sensitivity to peripheral noise and other distractions ([2]; orally-consumed THC): reduction in sensitivity
visualizing images described in writings, sense of direction ([2]; orally-consumed THC): increased ability to visualize images described in writings and an improved sense of direction
symptoms and deficits associated with ASD and ADHD [3]: reduce or eliminate
activity at CB2 receptor (CB2 receptor): partial agonist

CN[C@H]1CC[C@@H](c2ccc(Cl)c(Cl)c2)c2ccccc21 [Zoloft, sertraline HCl]
treating anxiety, depression, OCD, substance abuse and ADHD ([4]; 25 mg increasing up to 200 mg over 6-8 months, at initial dose and each incremental increase): initially effective
persistence of effects ([4]; 25-200 mg, after dosage increases): effects wore off at varying intervals
